# Reference: publication PMC11754443, “Synthesis, H2S releasing properties, antiviral and antioxidant activities and acute cardiac effects of nucleoside 5′-dithioacetates” (Scientific Reports, 2025)
# Values joined by “and” are separate entries in the source; they are usually repeats but may differ in a detail not shown here. Equal entries are not always repeated. Where two headings read alike, the source gives them in different places.
# Assays:
# [1] = test system: anaesthetized Sprague-Dawley rats; experiment: Cardiac effects by ECG and echocardiography in anaesthetized rats; type: in vivo, rat; settings: for Ejection Fraction / Heart rate / PR interval / QT interval / Stroke Volume: anaesthetized SD rats, 30 s after administration, mean ± SD
# Protocol: The animals received humane care, and all experimental procedures were carried out in accordance with the “Principles of Laboratory Animal Care” by EU Directive 2010/63/EU. All experimental protocols were approved by the local Ethics Committee of University of Debrecen (25/2023/DEMÁB). Animal experiments are reported in compliance with the ARRIVE guidelines. Anesthesia was carried out using ketamine/xylazine mixture (100/10 mg/kg, i.m.). The chest was shaved and the animal was placed onto a heated pad (VisualSonics SR200, VisualSonics, Amsterdam, The Netherlands). The lateral tail vein was cannulated using a heparinized 26G i.v. cannula (BD Neoflon, BD Medical, NJ, USA). B-mode and M-mode echocardiography was carried out before and 30 s after the intravenous administration of the compounds. A high-resolution ultrasound machine (Vevo 3100 Imaging Station, VisualSonics, Amsterdam, The Netherlands) equipped with a […] transducer (MX201) was used for assessing cardiac parameters. Traces were obtained from the parasternal long axis view (PLAX). A B-mode video and an M-mode trace was recorded, and the following parameters were then offline analysed: left ventricle (LV) end-systolic and end-diastolic volume (LVESV, LVEDV, respectively) fractional shortening (FS) and ejection fraction (EF) and stroke volume (SV).
# A 3-channel ECG was continuously recorded during the experiments (Vevo monitor ECG, VisualSonics, Amsterdam, The Netherlands). On the recorded ECG data, RR, PR and QT intervals, and heart rate (HR) were determined before and 30 s after the administration of the drugs, and 6 consecutive cardiac cycles were averaged for each parameter.
# Statistical analyses for the in vivo studies were carried out using the GraphPad Prism 9.0 software (GraphPad Software, San Diego, CA, USA). Data distribution was assessed by the Shapiro-Wilk normality test, and paired t-test were used to determine the differences between the baseline (drug free) and endpoint (treated) parameters in each group. A multiple comparison was also carried out between the treatment groups by using one-way ANOVA with Tukey multiple comparison test. Data was shown as mean ± SD, and differences with p < 0.05 were considered significant.
# [2] = DPPH radical scavenging assay; settings: for DPPH inhibition ratio (IR) after 30-min incubation / DPPH inhibition ratio (IR) immediately: 0.5 mM
# Protocol: DPPH is a stable free radical with a deep violet color that changes to yellow when neutralized by an electron or hydrogen radical, indicating the antioxidant activity of the sample being tested. The DPPH radical scavenging abilities were investigated following the method outlined by Shimamura et al., with minor adjustments. In this study, a cardiovascular tissue homogenate was used to induce H2S release from the dithioacetate derivatives 22 and 24, as well as GYY4137. A mixed solution of 1.2 mL of methanol and 800 µL of 0.1 M Tris-HCl buffer (pH 7.4) served as the blank. 1 mL DPPH solution was added to a mixture of methanol and 0.1 M Tris-HCl buffer (200:800 µL). After mixing, the absorbance was recorded at 517 nm on a UV-1600 PC VWR spectrophotometer (VWR, China). To avoid any potential interference from the heart extract in the assay, we measured the absorbance after adding different volumes of the extract into the mixture. These measurements were taken both immediately and after 30 min of incubation.
# The DPPH antioxidant assay was performed according to the following procedures. 1 mL of DPPH solution was added to a mixture of 200 µL of the methanolic sample solution and 800 µL of 0.1 M Tris-HCl buffer (pH = 7.4). For the groups containing the extract, the extract was introduced into a mixture of the sample solution in PBS buffer, 0.1 M Tris-HCl buffer, and DPPH (200:800:1000 µL). Considering that GYY4137 produces H2S upon hydrolysis, it was introduced last following the addition of the extract into a solution of PBS buffer, 0.1 M Tris-HCl buffer, and DPPH maintained at the same ratio. The same protocol was employed for NaHS without the addition of the extract. After mixing, the absorbance was promptly recorded, after which the solutions were incubated in the dark at room temperature for 30 min before the absorbance was measured again. The test samples were prepared and assayed at varying concentrations using a 2-fold serial dilution method, starting from a concentration of 2 mM. Each investigation was performed in triplicate, and the antioxidant activity was based on the absorbance recorded at 517 nm. Ascorbic acid (AA), GYY4137, and NaHS served as positive controls, while the unmodified nucleosides were used as reference compounds.
# The inhibition ratio (IR) was calculated as follows: [drawing 1] where Ac is the absorbance when methanol is added instead of the sample and As is the absorbance when the testing sample solution is added.
# The antioxidant capacity was expressed as the concentration needed to achieve a 50% inhibition of the free radical (IC50). The IC50 values were calculated by plotting the percent of inhibition as a function of sample concentration.
# Calu-3 cells = experiment: Cytotoxicity in Calu-3 cells (CellTiter-Glo); type: cell-based, human; settings: Calu-3 cells, no virus, two days incubation; read-out: CC50 ± SE, cytotoxicity in Calu-3 cells
# Protocol: Cytotoxicity was evaluated by incubating the same two-fold serial dilutions of each compound with Calu-3 cells as above in the absence of the virus. Following two days incubation at 37 °C in 5% CO2, the cell viability was determined as above. The compound concentrations resulting in 50% reduction of cell viability (CC50) were calculated from plots of percentage of luminescence versus log10 drug concentration as above. Remdesivir was used as control in both assays.
# [3] = H2S release detected with amperometric H2S-specific sensor in DMEM; settings: DMEM with 10% FBS, 0.28-0.32 mM compound
# Protocol: The H2S-donating ability of compound 22, 24, 27, 29 and 30 (0.5 mg dissolved in 0.1 mL of DMSO) was detected in Dulbecco’s modified Eagle’s medium (DMEM) (4.9 mL) supplemented with 10% fetal bovine serum and 1% penicillin-streptomycin. The final concentrations were 0.31 mM for compound 22, 0.29 mM for compound 24, 0.28 mM for compound 27, 0.32 mM for compound 29 and 0.32 mM for compound 30, respectively. The released H2S was detected by an amperometric, H2S specific sensor (ISO-H2S-100, World Precision Instruments, Saratosa, FL, USA) connected to a WPI TBR 1025 One-Channel Free Radical Analyzer. The sensor was set to 10 nA range and poise voltage to + 150 mV. Before the measurements the sensor was polarized in phosphate buffered saline (PBS) for 12 h[19]. The H2S-release of NaHS was detected in distilled water (0.1 mg in 5 mL of H2O; 0.36 mM) and the H2S-release of GYY4137 was measured in DMEM (0.5 mg of GYY4137 in 5 mL of medium; 0.27 mM).
# [4] = test system: SARS-CoV-2 (strain hCoV-19/Czech Republic/NRL_6632_2/2020); experiment: Anti-SARS-CoV-2 cytopathic-effect-based assay in Calu-3 cells (CellTiter-Glo); type: cell-based; settings: compound added 2 h after infection, MOI 0.3, read after two days, read-out: EC50 ± SE, anti-SARS-CoV-2 activity
# SARS-CoV-2 = type: cell-based; settings: medium of Calu-3 cells infected 2 days at the highest compound concentration, plaque assay in Vero E6 cells
# [5] = anaesthetized rats, 2 mg/kg i.v.
# [6] = after 30 min incubation, without extract, read-out: DPPH IC50 30 min
# [7] = measured immediately, without extract, read-out: DPPH IC50 immediately
# [8] = after 30 min incubation, with 20 µL homogenized rat heart extract, read-out: DPPH IC50 30 min, + extract (20 µL)
# [9] = measured immediately, with 20 µL homogenized rat heart extract, read-out: DPPH IC50 immediately, + extract (20 µL)
Molecule,Ejection Fraction ([1]; 2 mg/kg i.v.),Heart rate ([1]; 2 mg/kg i.v.),PR interval ([1]; 2 mg/kg i.v.),QT interval ([1]; 2 mg/kg i.v.),Stroke Volume ([1]; 2 mg/kg i.v.),DPPH inhibition ratio (IR) after 30-min incubation ([2]; after 30 min incubation),DPPH inhibition ratio (IR) immediately [2],"IC50 [2, 6]","IC50 [2, 7]",CC50 (Calu-3 cells),persistence of measurable H2S release [3],time at which H2S gas release reached the maximum level [3],EC50 [4],SARS-CoV-2 titer reduction (SARS-CoV-2),also measured
"Nc1ncnc2c1ncn2[C@@H]1O[C@H](CO)[C@@H](O)[C@H]1O [Adenosine, reference compound]",71.25±2.958%,67.38±16.46 bpm,59.50 ± 10.63 ms,195.0 ± 31.69 ms,396.8 ± 130.4 µL,,,,,,,,,,"time within which negative chronotropic effect dissipated [1, 5]: approximately 60 s; heart block (in words) ([1]; rat, in vivo, iv, 2 mg/kg): induced heart block"
"O=C1O[C@H]([C@@H](O)CO)C(O)=C1O [Ascorbic acid (AA), Ascorbic acid, reference compound]",,,,,,97.13%,97.25%,60 µM,60 µM,,,,,,
"C1COCCN1.COc1ccc(P(=S)(S)N2CCOCC2)cc1 (stereo not drawn) [GYY4137, reference compound]",,,,,,10.63%,5.95%,,,,,,,,
"[Na+].[SH-] [NaHS, sodium hydrosulfide, reference compound]",,,,,,90% and 90.03%,56.14%,,,,,,,,
"O=c1ccn([C@@H]2O[C@H](CO)[C@@H](O)[C@H]2O)c(=O)[nH]1 [Uridine, reference compound]",,,,,,,,> 100000 µM,> 100000 µM,,,,,,
S-(Adenosine-5′-yl)-dithioacetic acid [Compound 24],80.70±5.230%,120.5±29.19 bpm,47.00 ± 3.742 ms,172.3 ± 46.85 ms,416.5 ± 93.56 µL,,,2580 µM,3540 µM,~1000 µM,remained at a measurable level even after two hours,10 to 20 min,173 ± 24 µM,0 log10 PFU/mL,"duration of negative chronotropic action compared with adenosine [1, 5]: their duration of action was longer; heart block (in words) [1, 5]: None of the new compounds (22, 24, and 34) induced complete heart block or pauses; IC50 [2, 8]: 1620 µM; IC50 [2, 9]: 2660 µM"
S-(Cytidine-5′-yl)-dithioacetic acid [Compound 29],,,,,,,,,,> 1000 µM,remained at a measurable level even after two hours,10 to 20 min,> 1000 µM,0.13 log10 PFU/mL,
S-(Guanosine-5′-yl)-dithioacetic acid [Compound 27],,,,,,,,,,> 1000 µM,remained at a measurable level even after two hours,10 to 20 min,158 ± 34 µM,0.38 log10 PFU/mL,
S-(Thymidine-5′-yl)-dithioacetic acid [Compound 30],,,,,,,,,,764 ± 82 µM,remained at a measurable level even after two hours,10 to 20 min,621 ± 181 µM,0.01 log10 PFU/mL,
S-(Uridine-5′-yl)-dithioacetic acid [Compound 22],68.70±4.226%,172.3±19.45 bpm,51.2 ± 7.530 ms,122.2 ± 10.73 ms,344.6 ± 81.32 µL,,,3630 µM,5560 µM,> 1000 µM,remained at a measurable level even after two hours,10 to 20 min,> 1000 µM,0.02 log10 PFU/mL,"heart block (in words) [1, 5]: None of the new compounds (22, 24, and 34) induced complete heart block or pauses; IC50 [2, 8]: 1570 µM; IC50 [2, 9]: 3520 µM"
